In article PMC8758724, “Molecular mechanism of agonism and inverse agonism in ghrelin receptor” (Nature Communications, 2022):
Where “and” joins values, the source holds several entries; their conditions need not be identical. Equal entries are not always repeated. Entries after “also recorded” stand apart in the source; their conditions may differ. No end group written: not given here. *: point of attachment. Octanoyl = CCCCCCCC(=O)*

Test system: ghrelin receptor mutants
Assay: NanoBiT-G-protein dissociation, ghrelin receptor mutants, HEK293T cells, Gαio-LgBiT/Gγ-SmBiT, 3–5 min
Assay type: cell-based, human
Conditions: for ΔpEC50 (from the WT): single replicates
Procedure: Bars represent differences in calculated potency (pEC50) of ghrelin for mutations relative to the WT ghrelin receptor. Data are colored according to the extent of the effect. […], **P < 0.01 and ***P < 0.001. ns no significant difference, nd not detected. All data were analyzed by one-way analysis of variance (ANOVA) followed by Dunnett’s multiple comparison test, compared with the response of WT (P = 0.002, P = 0.002, P = 0.015, P < 0.001, P < 0.001, P = 0.732, P < 0.001, P = 0.843, P = 0.012, P < 0.001, P = 0.003, P < 0.001, P < 0.001 and P < 0.001 from left to right). […] See also Supplementary Figs. 6 and 7. d Detailed interaction of the octanoyl group of Ser^+3 with the key residues from cavity II and salt bridges between E124^3.33 and R283^6.55 are clearly observed in the ghrelin-bound structure.
For cryo-EM constructs, the full-length of wild-type human ghrelin receptor was subcloned into pFastBac1 vector with an N-terminal FLAG tag and C-terminal 10×His tag. We used the NanoBiT tethering strategy, in which the C-terminus of the ghrelin receptor was directly attached to the LgBiT subunit followed by a TEV protease cleavage site and a double MBP tag. Gβ1 was fused with a C-terminal HiBiT, together with Gγ2 were cloned into pFastBac dual vector. An engineered human Gαo1 with Gαo1 H domain deletion, named miniGαo1 was cloned into pFastBac1 according to published literature. The ghrelin-induced ghrelin receptor activity was measured by NanoBiT-G-protein dissociation assay using a chimeric Gαio protein according to the previous publication except for replacement Gαqo with Gαio[54]. The Gαio were generated by replacing the six amino acids of the C-terminal of Gαi with those from GαoA1. Other constructs including the full-length and various site-directed mutagenesis human ghrelin receptors were cloned into pcDNA3.1 vector for NanoBiT-G-protein dissociation assay. Ghrelin receptor, miniGαo1, and Gβ1γ2 were co-expressed in Sf9 insect cells (Expression System) using the Bac-to-Bac baculovirus expression system (ThermoFisher). The cell pellets were collected by centrifugation 48 h post infection and stored at −80 °C until use.
G-protein activation was detected by a NanoBiT-G-protein dissociation assay. In brief, HEK293T cells were plated in each well of a six-well plate at a concentration of 0.3 million/ml (2 mL per well). Plasmid transfection was performed with a mixture of 400 ng Gαio-LgBiT, 500 ng Gγ-SmBiT, 500 ng Gβ, 600 ng ghrelin receptor by Lipofectamine 2000 (ThermoFisher Scientific) in 200 μL of Opti-MEM (Gibco). After 1 day of transfection, cells in the six-well plate were digested and resuspended in complete medium DMEM (5% FBS, 1% antibiotic) and plated in a 96-well flat-bottomed white microplate. After 24 h, the cells were washed twice with D-PBS and incubated in 40 μL of 5 μM coelenterazine 400a (Maokangbio) solution diluted 0.01% BSA and 5 mM HEPES (pH 7.5)-containing HBSS (assay buffer) for 1 h at room temperature. Baseline luminescence was measured using a luminescent microplate reader (Tecan). Ghrelin (5×, diluted in the assay buffer) was added to the cells (10 μL) and incubated for 3–5 min at room temperature before the second measurement. The ligand-induced signal ratio was normalized to the baseline luminescence and fold-change signals over vehicle treatment were used to show G-protein dissociation response.

Substance: ghrelin: endogenous agonist, 28-amino acid peptide with octanoyl modification at the side chain of Ser+3 (GSS(Octanoyl)FLSPEHQRVQQRKESKKPPAKLQPR; UniProt Q9UBU3 24-51, looked up)
- ΔpEC50 (from the WT) (E124A): -1.682 and -1.692 and -1.769
- ghrelin-induced activation, effect of mutation (E124^3.33A): almost abolished the activity of the ghrelin receptor
- ghrelin-induced activation, effect of mutation (E124^3.33A, listed as ghrelin peptide): remarkably reduced the activation potency
- ΔpEC50 (from the WT) (F38A): -0.347 and -0.237 and -0.393
- ghrelin-induced activation, effect of mutation (F279^6.51A): decreased the activation potency; also recorded: almost abolished the activity of the ghrelin receptor
- ΔpEC50 (from the WT) (F286A): -1.001 and -0.994 and -1.053
- ghrelin-induced activation, effect of mutation (F286^6.58A): decreased the receptor activation
- ΔpEC50 (from the WT) (F290A): -0.357 and -0.309 and -0.272
- ΔpEC50 (from the WT) (F309A): -0.421 and -0.648 and -0.344
- ghrelin-induced activation, effect of mutation (F309^7.39 mutant): impaired ghrelin-induced G-protein signaling
- ghrelin-induced activation, effect of mutation (F312^7.42A): decreased the activation potency; also recorded: impaired ghrelin-induced G-protein signaling
- ΔpEC50 (from the WT) (I178A): -0.256 and -0.542 and -0.472
- ghrelin-induced activation, effect of mutation (I178^4.60A): decreased the receptor activation
- ΔpEC50 (from the WT) (L181A): -0.146 and -0.068 and -0.114
- ΔpEC50 (from the WT) (L210A): -0.704 and -0.734 and -0.866
- ghrelin-induced activation, effect of mutation (L210^5.36A): decreased the receptor activation
- ΔpEC50 (from the WT) (M213A): -0.105 and -0.084 and -0.1
- ΔpEC50 (from the WT) (N305A): -0.736 and -0.893 and -0.758
- ghrelin-induced activation, effect of mutation (N305^7.35A): remarkably reduced the activation potency
- ΔpEC50 (from the WT) (Q302A): -0.891 and -1.104 and -1.015
- ghrelin-induced activation, effect of mutation (Q302^7.32 mutant): impaired ghrelin-induced G-protein signaling
- ΔpEC50 (from the WT) (R102A): -0.473 and -0.141 and -0.326
- ghrelin-induced activation, effect of mutation (R283^6.55A): almost abolished the activity of the ghrelin receptor
- ghrelin-induced activation, effect of mutation (R283^6.55A, listed as ghrelin peptide): almost abolished the efficacy
- ΔpEC50 (from the WT) (S123A): -0.29 and -0.222 and -0.285
- ΔpEC50 (from the WT) (V214A): -0.199 and -0.412 and -0.206
- ghrelin-induced activation, effect of mutation (W276^6.48A): decreased the activation potency; also recorded: almost abolished the activity of the ghrelin receptor
- ΔpEC50 (from the WT) (Y106A): -0.423 and -0.136 and -0.417
